Test results: article PMC8863579, “Effects of pharmacological inhibition of the sodium‐dependent phosphate cotransporter 2b (NPT2b) on intestinal phosphate absorption in mouse and rat models” (Pharmacology Research & Perspectives, 2022)

Biological target: T1, rat NPT2b (Rattus norvegicus, UniProt Q9JJ09)
T1 construct: Full-Length cDNA Cloning and Generation of Cell Lines Over-Expressing Human, Mouse, and Rat NPT2b; host or cells: CHO-K1 / T-REx CHO, pcDNA5/TO, tetracycline-induced
T1 sequence (Q9JJ09 1-695): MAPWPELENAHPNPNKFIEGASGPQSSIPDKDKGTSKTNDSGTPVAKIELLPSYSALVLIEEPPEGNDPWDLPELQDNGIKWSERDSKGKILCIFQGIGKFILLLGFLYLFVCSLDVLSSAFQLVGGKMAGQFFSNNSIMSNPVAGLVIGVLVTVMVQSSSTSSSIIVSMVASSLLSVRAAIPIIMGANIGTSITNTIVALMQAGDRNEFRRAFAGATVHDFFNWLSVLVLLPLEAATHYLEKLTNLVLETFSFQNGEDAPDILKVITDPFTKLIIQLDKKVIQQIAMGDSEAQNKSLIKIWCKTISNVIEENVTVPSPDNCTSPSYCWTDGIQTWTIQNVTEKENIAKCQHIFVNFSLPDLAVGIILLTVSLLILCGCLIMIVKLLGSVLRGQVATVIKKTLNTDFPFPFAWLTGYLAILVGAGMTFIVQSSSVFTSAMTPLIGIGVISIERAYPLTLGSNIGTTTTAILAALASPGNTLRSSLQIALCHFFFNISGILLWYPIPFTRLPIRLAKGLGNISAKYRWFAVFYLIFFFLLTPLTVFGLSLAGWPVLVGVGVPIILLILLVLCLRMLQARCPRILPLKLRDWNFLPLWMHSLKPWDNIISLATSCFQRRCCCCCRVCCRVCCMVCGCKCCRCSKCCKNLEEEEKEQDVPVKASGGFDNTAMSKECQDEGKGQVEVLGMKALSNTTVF
Assay: 33P-phosphate uptake in CHO cells expressing rat NPT2b
Type: cell-based
Settings: geometric mean; 2.5 µM phosphate, 60 min, room temperature
Procedure: T‐Rex™ Chinese Hamster Ovary cells (CHO; Thermo Fisher Scientific) stably expressing human, mouse, or rat NPT2b under a tetracycline‐inducible promoter were generated using standard cDNA transfection and clone selection procedures (see Supporting Information). Cells were plated in 96‐well CytoStar‐T® scintillating microplates and were incubated overnight in growth media plus 100 ng/ml of tetracycline to induce expression of NPT2b. The next day, cells were washed 3 times with 200 µl assay buffer (137 mM NaCl, 5.4 mM KCl, 2.8 mM CaCl2, 1.2 mM MgSO4, and 14 mM Tris‐HCl buffer, pH 7.5). LY3358966 serially diluted 1‐to‐3 in DMSO was added to cells with assay buffer. An equal volume of H3 ^33PO4 (PerkinElmer) in assay buffer supplemented with 5 µM potassium phosphate was then added to initiate radiolabeled phosphate (^33P‐phosphate) uptake. The final phosphate concentration was 2.5 µM and the final DMSO concentration was 1%. Following a 60‐min incubation at room temperature, an equal volume of assay buffer containing 400 µM phloretin was added to stop ^33P‐phosphate uptake. The plate was immediately read on a Wallac MicroBeta Trilux liquid scintillation counter. Percent inhibition at all concentrations tested was calculated, and IC50 values were then determined using a 4‐parameter logistic curve fitting equation.
The vendors for target cDNA are listed in supplemental Table 1. […]

- IC50: 26.8 nM
Structure (SMILES): CC1(C)CN(C(=O)NCCCCO)CCN1Cc1cccc(C(=O)Nc2sc3c(c2C(=O)Nc2cc(F)c(CCc4ccc(C(=O)O)cc4)c(F)c2)CCCC3)c1 [LY3358966, 4‐[2‐[2,6‐difluoro‐4‐[[2‐[[3‐[[4‐(4‐hydroxybutylcarbamoyl)‐2,2‐dimethyl‐piperazin‐1‐yl]methyl]benzoyl]amino]‐4,5,6,7‐tetrahydrobenzothiophene‐3‐carbonyl]amino]phenyl]ethyl]benzoic acid]
